In ChEMBL document CHEMBL1201862, “PubChem BioAssay data set” (2004):
Calls of active or inactive are those of the source.

Experiments:
[1] = target: T1, Alkaline phosphatase, tissue-nonspecific isozyme (Homo sapiens, UniProt P05186); assay: human TNAP enzyme inhibitors, SAR follow-up, biochemical, luminescent, dose response (AID 1056)
T1 sequence (P05186 whole entry): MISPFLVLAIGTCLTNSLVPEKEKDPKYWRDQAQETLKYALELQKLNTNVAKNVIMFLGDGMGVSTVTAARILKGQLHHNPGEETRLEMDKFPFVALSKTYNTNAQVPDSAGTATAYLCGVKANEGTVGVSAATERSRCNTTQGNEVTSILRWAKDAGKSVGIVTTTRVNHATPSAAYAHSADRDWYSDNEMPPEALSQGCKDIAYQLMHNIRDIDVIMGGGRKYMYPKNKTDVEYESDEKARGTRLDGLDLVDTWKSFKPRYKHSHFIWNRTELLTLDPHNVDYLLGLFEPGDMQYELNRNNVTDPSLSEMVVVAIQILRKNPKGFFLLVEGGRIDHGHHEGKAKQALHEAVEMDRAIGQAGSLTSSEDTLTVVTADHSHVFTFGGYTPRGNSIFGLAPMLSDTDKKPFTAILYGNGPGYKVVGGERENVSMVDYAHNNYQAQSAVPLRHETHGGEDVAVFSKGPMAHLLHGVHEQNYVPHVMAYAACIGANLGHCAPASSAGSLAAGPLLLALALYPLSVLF

[2] = target: Glyceraldehyde-3-phosphate dehydrogenase (Homo sapiens, UniProt P04406)
Cytochrome P450 2D6 = Cytochrome P450 2D6 (Homo sapiens, UniProt P10635);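 note: CYP2D6 member of a cytochrome P450 panel assay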
Cytochrome P450 1A2 = target: T2, Cytochrome P450 1A2 (Homo sapiens, UniProt P05177);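 note: PubChem cytochrome P450 panel assay, CYP1A2 panel member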
T2 sequence (P05177 whole entry): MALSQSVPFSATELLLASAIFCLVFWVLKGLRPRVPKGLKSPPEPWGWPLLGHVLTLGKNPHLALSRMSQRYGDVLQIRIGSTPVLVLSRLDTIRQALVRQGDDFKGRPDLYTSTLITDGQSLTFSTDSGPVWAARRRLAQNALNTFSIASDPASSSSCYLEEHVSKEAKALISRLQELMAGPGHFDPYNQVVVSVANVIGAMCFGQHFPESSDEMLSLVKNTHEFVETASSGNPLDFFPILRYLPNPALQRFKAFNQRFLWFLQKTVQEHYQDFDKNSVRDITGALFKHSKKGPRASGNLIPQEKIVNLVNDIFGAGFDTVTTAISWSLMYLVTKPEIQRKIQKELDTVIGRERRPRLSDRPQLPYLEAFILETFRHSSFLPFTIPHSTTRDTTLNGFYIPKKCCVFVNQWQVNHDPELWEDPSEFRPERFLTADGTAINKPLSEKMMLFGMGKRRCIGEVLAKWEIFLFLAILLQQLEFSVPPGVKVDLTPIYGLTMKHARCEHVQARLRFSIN

Cytochrome P450 3A4 = Cytochrome P450 3A4 (Homo sapiens, UniProt P08684);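 note: CYP3A4 tested as one member of a cytochrome P450 panel screen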
[3] = target: Glucose-6-phosphate 1-dehydrogenase (Homo sapiens, UniProt P11413); assay: human G6PD enzyme inhibitors, dose response, selectivity assay for P. falciparum G6PD inhibitor project, biochemical, fluorescence (AID 504792); type: functional
[4] = Luminescence Cell-Based Dose Retest to Confirm Inhibitors of Cancer Stem Cells. [Related pubchem assays (depositor defined):AID2717, AID2721]; type: functional; conditions: Homo sapiens
Protein Wnt-3a = Protein Wnt-3a (Mus musculus, UniProt P27467); assay: Wnt3a-driven reporter signaling inhibition, dose response, selectivity assay for Gli-SUFU antagonist project, Wnt-LIGHT cells, luminescence (AID 651570); type: functional; conditions: read-out: IC50_Mean;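 note: Wnt-LIGHT reporter cells stimulated with conditioned medium from Wnt3a-producing cells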
HEK293 = assay: inhibitors of LMP1-driven NF-kB reporter, dose response, cell-based, HEK293, luciferase, cherry-pick (AID 588343); type: functional; conditions: Homo sapiens
[5] = control 3'UTR Renilla luciferase suppression, dose response, counter-screen for Shn3 inhibitor project, cell-based, Clone20-Shn3RL, cherry-picked (AID 624133); type: functional
[6] = inhibitors of intracellular T. cruzi replication, confirmation, NIH3T3 host cells, beta-gal luminescence (AID 2044); type: functional, cell-based;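 note: intracellular parasites grown in NIH/3T3 mouse fibroblasts as host cells; luminescent beta-galactosidase reporter signal from transgenic T. cruzi replicating inside host cells; inhibitors lower the luminescence signal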
[7] = cytotoxicity toward NIH3T3 fibroblasts, dose response, counter-screen, cell-based, ATP luminescence, mouse fibroblasts (AID 2010); type: functional;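 note: cells exposed to compound for about 90 hours before reading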
[8] = Shn3 3'UTR reporter inhibitors, dose response, cell-based, Clone20 osteoblasts, firefly luciferase, cherry-picked (AID 624132); type: functional;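 note: firefly luciferase luminescence from reporter carrying the Shn3 3'UTR in osteoblasts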
[9] = HepG2 cell cytotoxicity, dose response, cytotoxicity control for Shn3 inhibitor project, CellTiter-Glo, cherry-picked (AID 624134); type: functional, cell-based
Cysteine protease ATG4B = target: T3, Cysteine protease ATG4B (Homo sapiens, UniProt Q9Y4P1); type: functional;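 note: Fluorescence-based dose-response confirmation assay measuring inhibition of ATG4B activity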
T3 sequence (Q9Y4P1 whole entry): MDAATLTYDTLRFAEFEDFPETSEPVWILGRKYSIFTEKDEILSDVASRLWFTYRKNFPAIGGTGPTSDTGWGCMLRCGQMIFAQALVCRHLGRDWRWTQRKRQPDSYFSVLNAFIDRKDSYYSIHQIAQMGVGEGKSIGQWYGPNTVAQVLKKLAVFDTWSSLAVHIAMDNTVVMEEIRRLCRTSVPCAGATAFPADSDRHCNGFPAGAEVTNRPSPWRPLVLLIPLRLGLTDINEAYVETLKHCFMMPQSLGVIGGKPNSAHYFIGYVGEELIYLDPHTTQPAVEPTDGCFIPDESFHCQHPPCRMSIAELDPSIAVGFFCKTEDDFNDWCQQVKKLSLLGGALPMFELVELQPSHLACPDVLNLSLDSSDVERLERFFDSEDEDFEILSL

Phospholipase A2 = Phospholipase A2 (Homo sapiens, UniProt P04054); type: functional;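 note: confirmatory dose-response counterscreen on phospholipase A2, testing hits that came from an ultra-high-throughput screen for ATG4B inhibitors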
[10] = target: T4, High affinity choline transporter 1 (Homo sapiens, UniProt Q9GZV3); assay: CHT inhibitors, dose response, cell-based, 5-point CRC, membrane potential dye (AID 504840); type: functional
T4 sequence (Q9GZV3 whole entry): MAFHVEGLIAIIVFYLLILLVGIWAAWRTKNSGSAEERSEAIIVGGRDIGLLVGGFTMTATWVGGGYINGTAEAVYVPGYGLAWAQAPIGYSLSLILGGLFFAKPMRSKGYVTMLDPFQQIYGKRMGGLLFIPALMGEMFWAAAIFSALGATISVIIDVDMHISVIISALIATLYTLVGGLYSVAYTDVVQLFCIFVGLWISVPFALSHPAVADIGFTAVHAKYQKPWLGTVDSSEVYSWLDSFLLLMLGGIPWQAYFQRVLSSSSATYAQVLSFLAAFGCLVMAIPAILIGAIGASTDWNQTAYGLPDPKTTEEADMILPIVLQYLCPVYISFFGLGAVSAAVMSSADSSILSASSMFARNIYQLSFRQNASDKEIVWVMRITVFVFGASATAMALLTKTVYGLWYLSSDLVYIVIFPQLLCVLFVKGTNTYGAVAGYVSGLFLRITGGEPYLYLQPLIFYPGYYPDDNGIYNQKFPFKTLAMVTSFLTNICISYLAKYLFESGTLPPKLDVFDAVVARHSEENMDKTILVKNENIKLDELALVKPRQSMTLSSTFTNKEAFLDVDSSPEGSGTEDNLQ

Troponin, cardiac muscle = Troponin, cardiac muscle (Homo sapiens, UniProt P19429+P45379+P63316); assay: Fluorescence-based biochemical high throughput dose response assay for activators of the calcium sensitivity of cardiac Regulated Thin Filaments (RTF). [Related pubchem assays (depositor defined):AID493008, AID493018, AID504382, AID504383]; type: protein-complex assay
[11] = target: FAD-linked sulfhydryl oxidase ALR (Homo sapiens, UniProt P55789); assay: inhibitors of human ALR sulfhydryl oxidase, dose response, biochemical, H2O2 detection, luminescence, cherry-pick (AID 493248)
[12] = HEp-2 cell cytotoxicity, dose response, cytotoxicity control for RSV inhibitor project, HTS (AID 2410); type: functional; conditions: human respiratory syncytial virus
INS1 = assay: beta cell apoptosis inhibitors, cytokine rescue, dose response, luminescence, retest (AID 449756); type: functional, cell-based; conditions: Rattus norvegicus;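 note: cell death triggered by IL-1 beta plus TNF-alpha plus IFN-gamma mixture; protective hits raise ATP signal compared with cytokine alone wells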
[13] = target: T5, Heat shock factor protein 1 (Mus musculus, UniProt P38532); assay: HSF1 potentiators in luciferase reporter cells, confirmation, cell-based, NIH3T3, luminescence, dose retest (AID 435004); type: functional;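 note: stress induced by proteasome inhibitor MG132 added 30 min after compound; luciferase reporter driven by HSF1 response element in NIH3T3 cells; actives raise luminescence as potentiators of the MG132 stress response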
T5 sequence (P38532 whole entry): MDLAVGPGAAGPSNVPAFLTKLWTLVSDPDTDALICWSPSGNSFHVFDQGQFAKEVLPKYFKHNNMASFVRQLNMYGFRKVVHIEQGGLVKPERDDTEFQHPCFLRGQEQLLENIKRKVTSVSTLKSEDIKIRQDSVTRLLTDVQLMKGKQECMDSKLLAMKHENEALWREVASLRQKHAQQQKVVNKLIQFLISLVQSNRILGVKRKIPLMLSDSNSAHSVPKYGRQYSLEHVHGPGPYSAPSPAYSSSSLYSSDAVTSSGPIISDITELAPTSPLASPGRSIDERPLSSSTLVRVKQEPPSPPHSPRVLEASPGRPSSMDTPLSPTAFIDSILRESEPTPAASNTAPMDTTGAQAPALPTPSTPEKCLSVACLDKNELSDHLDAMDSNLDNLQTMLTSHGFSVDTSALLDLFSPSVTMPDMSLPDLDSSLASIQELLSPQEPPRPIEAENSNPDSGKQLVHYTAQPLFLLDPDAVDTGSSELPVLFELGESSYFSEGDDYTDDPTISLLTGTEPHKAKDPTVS

Cytochrome P450 2C19 = Cytochrome P450 2C19 (Homo sapiens, UniProt P33261); assay: Cytochrome panel assay with activity outcomes. Panel member name: p450-cyp2c19 Compounds with AC50 equal or less than 10 uM are considered active; type: functional; conditions: read-out: AC50
Cytochrome P450 2C9 = Cytochrome P450 2C9 (Homo sapiens, UniProt P11712)
Cytochrome P450 2C9, sequence (P11712 whole entry): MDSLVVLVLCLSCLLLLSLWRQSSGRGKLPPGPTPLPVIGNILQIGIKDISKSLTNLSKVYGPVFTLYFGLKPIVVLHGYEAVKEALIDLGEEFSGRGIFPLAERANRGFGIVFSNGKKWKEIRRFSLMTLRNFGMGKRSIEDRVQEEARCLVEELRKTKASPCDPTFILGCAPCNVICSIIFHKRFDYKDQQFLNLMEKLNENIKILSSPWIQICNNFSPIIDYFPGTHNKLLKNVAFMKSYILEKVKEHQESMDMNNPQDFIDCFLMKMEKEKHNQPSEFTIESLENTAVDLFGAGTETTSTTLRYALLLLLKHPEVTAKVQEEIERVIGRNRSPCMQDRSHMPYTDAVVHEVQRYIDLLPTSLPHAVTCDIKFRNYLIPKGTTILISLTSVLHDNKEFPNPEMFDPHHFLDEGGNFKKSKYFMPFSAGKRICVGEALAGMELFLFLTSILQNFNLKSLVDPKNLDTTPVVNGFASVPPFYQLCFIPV

Protein Wnt-3a, sequence (P27467 whole entry): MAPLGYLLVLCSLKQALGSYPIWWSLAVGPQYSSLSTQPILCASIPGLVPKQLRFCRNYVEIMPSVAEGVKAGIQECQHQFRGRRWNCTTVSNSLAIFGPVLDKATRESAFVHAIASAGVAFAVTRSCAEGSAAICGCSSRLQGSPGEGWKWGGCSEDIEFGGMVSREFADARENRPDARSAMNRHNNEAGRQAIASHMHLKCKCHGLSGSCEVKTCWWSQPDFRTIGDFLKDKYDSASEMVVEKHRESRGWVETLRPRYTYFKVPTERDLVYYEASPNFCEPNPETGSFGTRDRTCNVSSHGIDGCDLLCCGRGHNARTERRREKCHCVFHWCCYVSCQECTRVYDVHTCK
Cytochrome P450 3A4, sequence (P08684 whole entry): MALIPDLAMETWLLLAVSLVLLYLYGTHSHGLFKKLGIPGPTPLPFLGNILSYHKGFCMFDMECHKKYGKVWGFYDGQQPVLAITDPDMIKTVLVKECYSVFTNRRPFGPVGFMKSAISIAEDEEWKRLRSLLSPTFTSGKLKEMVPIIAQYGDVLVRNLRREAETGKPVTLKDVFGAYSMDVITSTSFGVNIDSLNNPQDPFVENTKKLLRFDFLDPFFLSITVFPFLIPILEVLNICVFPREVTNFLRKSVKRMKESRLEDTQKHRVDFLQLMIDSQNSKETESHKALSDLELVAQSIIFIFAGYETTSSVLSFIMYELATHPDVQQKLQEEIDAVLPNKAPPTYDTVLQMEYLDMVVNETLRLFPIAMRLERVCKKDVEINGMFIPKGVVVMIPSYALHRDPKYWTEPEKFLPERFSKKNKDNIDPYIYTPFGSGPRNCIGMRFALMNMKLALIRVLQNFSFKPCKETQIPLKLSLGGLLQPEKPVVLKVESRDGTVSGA
Phospholipase A2, sequence (P04054 whole entry): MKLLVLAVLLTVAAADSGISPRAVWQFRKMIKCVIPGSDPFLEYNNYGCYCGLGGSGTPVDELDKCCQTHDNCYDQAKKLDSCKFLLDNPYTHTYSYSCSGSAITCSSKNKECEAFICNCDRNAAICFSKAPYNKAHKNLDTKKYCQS
Glucose-6-phosphate 1-dehydrogenase, sequence (P11413 whole entry): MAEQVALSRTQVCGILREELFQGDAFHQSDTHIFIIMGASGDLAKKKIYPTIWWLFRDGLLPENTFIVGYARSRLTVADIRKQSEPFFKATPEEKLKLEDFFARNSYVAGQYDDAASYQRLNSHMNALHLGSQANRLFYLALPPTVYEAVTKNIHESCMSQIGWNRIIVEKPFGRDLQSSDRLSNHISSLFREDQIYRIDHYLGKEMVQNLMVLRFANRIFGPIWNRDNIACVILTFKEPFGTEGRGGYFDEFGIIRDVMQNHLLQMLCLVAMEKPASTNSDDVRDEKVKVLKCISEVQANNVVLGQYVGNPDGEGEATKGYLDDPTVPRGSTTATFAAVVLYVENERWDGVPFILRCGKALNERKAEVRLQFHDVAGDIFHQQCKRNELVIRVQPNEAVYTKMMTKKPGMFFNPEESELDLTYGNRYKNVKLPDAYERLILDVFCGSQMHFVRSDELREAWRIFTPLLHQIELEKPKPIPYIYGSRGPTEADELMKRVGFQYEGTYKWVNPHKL
Glyceraldehyde-3-phosphate dehydrogenase, sequence (P04406 whole entry): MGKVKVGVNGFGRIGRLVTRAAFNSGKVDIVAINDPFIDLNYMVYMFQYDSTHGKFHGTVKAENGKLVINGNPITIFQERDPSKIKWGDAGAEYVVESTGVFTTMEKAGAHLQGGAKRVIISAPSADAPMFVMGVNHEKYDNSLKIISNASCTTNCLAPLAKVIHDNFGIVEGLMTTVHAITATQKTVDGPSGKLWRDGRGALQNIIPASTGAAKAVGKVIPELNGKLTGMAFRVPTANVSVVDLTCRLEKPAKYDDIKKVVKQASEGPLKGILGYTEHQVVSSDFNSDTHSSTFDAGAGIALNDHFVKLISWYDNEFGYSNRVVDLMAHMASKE
Cytochrome P450 2D6, sequence (P10635 whole entry): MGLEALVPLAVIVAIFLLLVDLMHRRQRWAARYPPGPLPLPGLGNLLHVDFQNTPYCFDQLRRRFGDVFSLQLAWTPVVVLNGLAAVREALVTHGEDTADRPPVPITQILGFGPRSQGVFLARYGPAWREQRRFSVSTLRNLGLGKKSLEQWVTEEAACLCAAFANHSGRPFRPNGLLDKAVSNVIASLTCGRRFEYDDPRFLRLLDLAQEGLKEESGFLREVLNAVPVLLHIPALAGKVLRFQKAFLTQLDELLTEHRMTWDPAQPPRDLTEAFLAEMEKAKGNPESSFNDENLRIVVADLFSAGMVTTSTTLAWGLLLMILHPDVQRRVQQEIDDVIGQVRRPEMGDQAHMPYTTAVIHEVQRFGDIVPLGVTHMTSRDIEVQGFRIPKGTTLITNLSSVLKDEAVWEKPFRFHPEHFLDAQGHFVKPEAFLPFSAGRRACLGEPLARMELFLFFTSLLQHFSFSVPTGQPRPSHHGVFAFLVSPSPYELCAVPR
FAD-linked sulfhydryl oxidase ALR, sequence (P55789 whole entry): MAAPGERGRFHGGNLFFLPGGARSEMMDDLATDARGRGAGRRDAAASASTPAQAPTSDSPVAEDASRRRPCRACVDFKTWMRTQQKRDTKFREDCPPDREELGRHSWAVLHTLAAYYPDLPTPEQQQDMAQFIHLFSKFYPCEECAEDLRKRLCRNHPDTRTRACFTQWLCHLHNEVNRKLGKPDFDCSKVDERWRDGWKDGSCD
Cytochrome P450 2C19, sequence (P33261 whole entry): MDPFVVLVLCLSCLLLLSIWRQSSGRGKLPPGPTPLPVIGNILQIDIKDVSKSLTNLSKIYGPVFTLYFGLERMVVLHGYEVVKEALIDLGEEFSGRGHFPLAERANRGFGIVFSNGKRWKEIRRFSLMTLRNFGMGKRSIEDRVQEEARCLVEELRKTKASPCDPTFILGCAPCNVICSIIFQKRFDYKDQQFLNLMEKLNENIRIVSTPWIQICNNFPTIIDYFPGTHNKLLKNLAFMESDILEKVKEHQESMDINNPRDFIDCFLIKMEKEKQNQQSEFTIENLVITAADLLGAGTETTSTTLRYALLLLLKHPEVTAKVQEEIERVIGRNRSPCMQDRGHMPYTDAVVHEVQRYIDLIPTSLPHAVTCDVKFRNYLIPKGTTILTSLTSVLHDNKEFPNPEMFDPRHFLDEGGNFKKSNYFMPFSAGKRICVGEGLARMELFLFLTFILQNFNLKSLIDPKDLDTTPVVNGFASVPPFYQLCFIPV

## COc1ccc(OC)c(NCc2cnc3ccccc3c2)c1
[1]
  IC50: > 100 µM (inactive)
[2]
  IC50: > 100 µM (not active)

## COC(=O)C(Cc1ccc(OC(=O)c2ccc(Cl)cc2)cc1)N1Cc2ccccc2C1=O (stereo not drawn)
Cytochrome P450 2D6
  AC50: 5.01 µM (inconclusive)
Cytochrome P450 1A2
  AC50: 31.6 µM (inconclusive)
Cytochrome P450 3A4
  AC50: inconclusive

## COc1ccc(C)cc1S(=O)(=O)Nc1ccc2ccccc2c1
[1]
  IC50: > 100 µM (inactive)
[2]
  IC50: > 100 µM (not active)

## Cc1ccc(/C=C/C(=O)NCC2COc3ccccc3O2)o1 (stereo not drawn)
[3]
  IC50: > 80 µM (inactive)
[4]
  AC50: 33.1 µM (active)

## COc1cccc(/C=C/c2ccncc2)c1OC
Protein Wnt-3a
  IC50: 1.7 µM (active)

## CCN1CCN(Cc2ccc(NC(=O)c3ccc(C)c(NC(=O)c4nccnc4N)c3)cc2C(F)(F)F)CC1
HEK293
  AC50: 0.528 µM (active)

## CC(C)(C)c1ccc(CN2C3=NCCCN3c3ccccc32)cc1
[5]
  AC50: 0.978 µM (active)
Protein Wnt-3a
  IC50: 2.94 µM (active)
[6]
  EC50: 0.387 µM (active)
[7]
  EC50: > 60 µM (not active)
[8]
  AC50: 0.836 µM (active)
[9]
  AC50: 21.8 µM (active)

## COC(=O)c1ccc(C(=O)N2CCCC(Nc3ccc(C(C)C)cc3)C2)nc1 (stereo not drawn)
Cysteine protease ATG4B
  IC50: 17.9 µM (active)
Phospholipase A2
  IC50: 12.3 µM (active)

## Cc1ccc(-c2csc(NC(=O)c3ccccc3F)c2C(=O)O)cc1
[10]
  IC50: 11.5 µM (active)
[3]
  IC50: > 80 µM (inactive)

## Cc1ccsc1-c1nc(CSCC(=O)N2CCN(c3ccccc3)CC2)c(C)o1
HEK293
  AC50: 225 µM (active)

## COc1c(O)cccc1-c1nnn(CCC(=O)OCC(=O)c2ccccc2)n1
Troponin, cardiac muscle
  EC50: > 71.5 µM (inactive)

## CCN(CC)c1ccc(/C=C2\SC(=N)NC2=O)cc1
Troponin, cardiac muscle
  EC50: 6.01 µM (active)
[11]
  AC50: 2.74 µM (active)

## CN1C(=O)/C(=C/C=C2\SCCN2C)OC1=S
Troponin, cardiac muscle
  EC50: 7 µM (active)

## COc1ccc2cc(-c3cc(C(=O)O)c4ccccc4n3)ccc2c1
cells
  IC50: 40.9 µM (active)
[12]
  CC50: 22.5 µM (active)
HEK293
  AC50: 1.05 µM (active)

## O=C(c1ccco1)N1CCC2(CC1)CCN(c1ccc(-c3ccccc3)cc1)CC2
Cytochrome P450 3A4
  AC50: inconclusive

## O=C(c1cnc(N2CCN(c3ccccn3)CC2)c2ccccc12)N1CCN(c2cccc(Cl)c2)CC1
[5]
  AC50: 3.68 µM (active)
Protein Wnt-3a
  IC50: 7.02 µM (active)
INS1
  AC50: 6.14 µM (active)
[8]
  AC50: 1.99 µM (active)
[9]
  AC50: 59.9 µM (active)

## COC(=O)C(C)N(C(=O)c1ccc(C(=O)c2ccccc2)cc1)c1c(C)cccc1C (stereo not drawn)
Cysteine protease ATG4B
  IC50: 9.78 µM (active)
[13]
  EC50: > 260 µM (inactive)
Phospholipase A2
  IC50: 8.13 µM (active)

## O=C1CCC[C@@H]2[C@@H](Cc3ccccc3)[C@H](N3CCN(c4ccccc4)CC3)C[C@@H]3CCN1[C@@H]32
[3]
  IC50: > 80 µM (inactive)

## Cn1nc(NC(=O)C2CCC2C(=O)O)c2c(F)cccc21 (stereo not drawn)
Troponin, cardiac muscle
  EC50: > 71.5 µM (inactive)

## Cc1ccc(-c2c(C(=O)N/N=C/c3ccc(C)o3)nnn2-c2nonc2N)cc1
[3]
  IC50: 12.5 µM (active)

## Cc1ccc(C(=O)O/N=C2\CCCc3ccccc32)cc1
Cysteine protease ATG4B
  IC50: 8.65 µM (active)
Phospholipase A2
  IC50: 2.83 µM (active)

## O=C(CCCN1CCN(c2ccccn2)CC1)c1ccc(F)cc1 [AZAPERONE]
Cytochrome P450 2C19
  AC50: 15.8 µM (inconclusive)
Cytochrome P450 2D6
  AC50: 7.94 µM (inconclusive)
Cytochrome P450 1A2
  AC50: 15.8 µM (inconclusive)
Cytochrome P450 2C9
  AC50: 12.6 µM (inconclusive)
Cytochrome P450 3A4
  AC50: inconclusive
